Measurements reported in US20070128217A1 (priority 2003, published 2007).

Tests used:
[1] = tested on: control sera (pooled serum of ten healthy LUMC hospital workers; commercial negative donor pooled serum from the Dutch bloodbank); type: binding, human; parameters: Binding of Control serum LUMC to linear peptides / Binding of Control serum Blood-bank to linear peptides / Binding of Control serum LUMC to looped peptides / Binding of Control Serum Blood-Bank to Looped peptides / Binding of Control serum LUMC to linear peptides of the protein M of SARS-CoV Urbani / Binding of Control serum Blood-bank to linear peptides of the protein M of SARS-CoV Urbani / Binding of Control serum LUMC to looped peptides of the protein M of SARS-CoV Urbani / Binding of Control Serum Blood-Bank to Looped peptides of the protein M of SARS-CoV Urbani: unit not given here
[2] = tested on: antibodies in sera from SARS patients (sera 1a, 1b, 2, 6, 37, 62, London, SARS-yellow, SARS-green); type: binding, human; parameters: Binding of serum 6 to linear peptides of protein X1 of SARS-CoV Urbani / Binding of serum 37 to linear peptides of protein X1 of SARS-CoV Urbani / Binding of serum 6 to looped/cyclic peptide (PEPSCAN-ELISA) / Binding of serum 37 to looped/cyclic peptide (PEPSCAN-ELISA) / Binding of serum 37 to looped/cyclic peptides of protein X1 of SARS-CoV Urbani / Binding of serum 6 to linear peptides of protein X2 / Binding of serum 37 to linear peptides of protein X2 / Binding of serum 37 to looped/cyclic peptides of protein X2 of SARS-CoV Urbani / Binding of serum 6 to linear peptides of protein M of SARS-CoV Urbani / Binding of serum 37 to linear peptides of protein M of SARS-CoV Urbani / Binding of serum 6 to looped/cyclic peptides of protein M of SARS-CoV Urbani / Binding of serum 37 to looped/cyclic peptides of protein M of SARS-CoV Urbani / Binding of serum 6 to linear peptides of protein X3 of SARS-CoV Urbani / Binding of serum 37 to linear peptides of protein X3 of SARS-CoV Urbani / Binding of serum 37 to looped/cyclic peptides of protein X3 of SARS-CoV Urbani / Binding of serum 6 to linear peptides of protein X4 of SARS-CoV Urbani / Binding of serum 37 to linear peptides of protein X4 of SARS-CoV Urbani / Binding of serum 37 to looped/cyclic peptides of protein X4 of SARS-CoV Urbani / Binding of serum 6 to linear peptides of protein X5 of SARS-CoV Urbani / Binding of serum 37 to linear peptides of protein X5 of SARS-CoV Urbani / Binding of serum 37 to looped/cyclic peptides of protein X5 of SARS-CoV Urbani / Binding of serum 6 to linear peptides of protein N of SARS-CoV Urbani / Binding of serum 37 to linear peptides of protein N of SARS-CoV Urbani / Binding of serum 6 to linear peptide (PEPSCAN-ELISA) / Binding of serum 1a to looped/cyclic peptides of protein N of SARS-CoV Urbani / Binding of serum 1b to looped/cyclic peptides of protein N of SARS-CoV Urbani / Binding of serum 2 to looped/cyclic peptides of protein N of SARS-CoV Urbani / Binding of serum 6 to looped/cyclic peptides of protein N of SARS-CoV Urbani / Binding of serum 37 to looped/cyclic peptides of protein N of SARS-CoV Urbani / Binding of serum 62 to looped/cyclic peptides of protein N of SARS-CoV Urbani / Binding of serum London to looped/cyclic peptides of protein N of SARS-CoV Urbani / Binding of serum SARS-green to looped/cyclic peptides of protein N of SARS-CoV Urbani: unit not given here
[3] = tested on: rabbit serum obtained by immunizing a rabbit with the SARS-CoV strain Frankfurt 1; type: binding; parameters: Binding of a rabbit serum to linear peptides / Binding of a rabbit serum to looped peptides / Rabbit serum linear peptides / Rabbit serum looped peptides / Binding of a rabbit serum to linear peptides of protein N of SARS-CoV Urbani (Rabbit serum linear peptides) / Binding of a rabbit serum to looped/cyclic peptides of protein N of SARS-CoV Urbani (Rabbit serum looped peptides): unit not given here

QLSLLKVTAFQHQNS
Binding of Control Serum Blood-Bank to Looped peptides [1]: 0.5
Binding of Control serum Blood-bank to linear peptides [1]: 0.4
Binding of Control serum LUMC to linear peptides [1]: 0.6
Binding of Control serum LUMC to looped peptides [1]: 0.6
Binding of serum 1a to linear peptides of protein X2 [2]: 0.5
Binding of serum 1a to looped/cyclic peptides of protein X2 of SARS-CoV Urbani [2]: 0.5
Binding of serum 1b to linear peptides of protein X2 [2]: 0.4
Binding of serum 1b to looped/cyclic peptides of protein X2 of SARS-CoV Urbani [2]: 0.5
Binding of serum 2 to linear peptides of protein X2 [2]: 0.3
Binding of serum 2 to looped/cyclic peptides of protein X2 of SARS-CoV Urbani [2]: 0.3
Binding of serum 6 to linear peptides of protein X2 [2]: 0.4
Binding of serum 6 to looped/cyclic peptides of protein X2 of SARS-CoV Urbani [2]: 0.3
Binding of serum 37 to linear peptides of protein X2 [2]: 0.5
Binding of serum 37 to looped/cyclic peptides of protein X2 of SARS-CoV Urbani [2]: 0.4
Binding of serum 62 to linear peptides of protein X2 [2]: 0.3
Binding of serum 62 to looped/cyclic peptides of protein X2 of SARS-CoV Urbani [2]: 0.6
Binding of serum London to linear peptides of protein X2 [2]: 0.3
Binding of serum London to looped/cyclic peptides of protein X2 of SARS-CoV Urbani [2]: 0.3
Binding of serum SARS-green to linear peptides of protein X2 [2]: 0.1
Binding of serum SARS-green to looped/cyclic peptides of protein X2 of SARS-CoV Urbani [2]: 0.2
Binding of serum SARS-yellow to linear peptides of protein X2 [2]: 0.1
Binding of serum SARS-yellow to looped/cyclic peptides of protein X2 of SARS-CoV Urbani [2]: 0.3
Binding of a rabbit serum to linear peptides [3]: 0.6
Binding of a rabbit serum to looped peptides [3]: 0.5

QQELYSPLFLIVAAL
Binding of Control Serum Blood-Bank to Looped peptides [1]: 0.6
Binding of Control serum Blood-bank to linear peptides [1]: 0.5
Binding of Control serum LUMC to linear peptides [1]: 0.4
Binding of Control serum LUMC to looped peptides [1]: 0.6
Binding of serum 1a to linear peptides of protein X4 of SARS-CoV Urbani [2]: 0.7
Binding of serum 1a to looped/cyclic peptides of protein X4 of SARS-CoV Urbani [2]: 0.7
Binding of serum 1b to linear peptides of protein X4 of SARS-CoV Urbani [2]: 0.5
Binding of serum 1b to looped/cyclic peptides of protein X4 of SARS-CoV Urbani [2]: 0.4
Binding of serum 2 to linear peptides of protein X4 of SARS-CoV Urbani [2]: 0.5
Binding of serum 2 to looped/cyclic peptides of protein X4 of SARS-CoV Urbani [2]: 0.6
Binding of serum 6 to linear peptides of protein X4 of SARS-CoV Urbani [2]: 0.7
Binding of serum 6 to looped/cyclic peptides of protein X4 of SARS-CoV Urbani [2]: 0.4
Binding of serum 37 to linear peptides of protein X4 of SARS-CoV Urbani [2]: 0.7
Binding of serum 37 to looped/cyclic peptides of protein X4 of SARS-CoV Urbani [2]: 0.6
Binding of serum 62 to linear peptides of protein X4 of SARS-CoV Urbani [2]: 0.6
Binding of serum 62 to looped/cyclic peptides of protein X4 of SARS-CoV Urbani [2]: 0.6
Binding of serum London to linear peptides of protein X4 of SARS-CoV Urbani [2]: 0.8
Binding of serum London to looped/cyclic peptides of protein X4 of SARS-CoV Urbani [2]: 0.3
Binding of serum SARS-green to linear peptides of protein X4 of SARS-CoV Urbani [2]: 0.6
Binding of serum SARS-green to looped/cyclic peptides of protein X4 of SARS-CoV Urbani [2]: 0.5
Binding of serum SARS-yellow to linear peptides of protein X4 of SARS-CoV Urbani [2]: 0.6
Binding of serum SARS-yellow to looped/cyclic peptides of protein X4 of SARS-CoV Urbani [2]: 0.7
Rabbit serum linear peptides [3]: 0.4
Rabbit serum looped peptides [3]: 0.4

QQWIQFMMSRRRLLA
Binding of Control Serum Blood-Bank to Looped peptides [1]: 0.7
Binding of Control serum Blood-bank to linear peptides [1]: 0.8
Binding of Control serum LUMC to linear peptides [1]: 0.6
Binding of Control serum LUMC to looped peptides [1]: 0.5
Binding of serum 1a to linear peptides of protein X2 [2]: 0.6
Binding of serum 1a to looped/cyclic peptides of protein X2 of SARS-CoV Urbani [2]: 0.6
Binding of serum 1b to linear peptides of protein X2 [2]: 0.4
Binding of serum 1b to looped/cyclic peptides of protein X2 of SARS-CoV Urbani [2]: 0.5
Binding of serum 2 to linear peptides of protein X2 [2]: 0.4
Binding of serum 2 to looped/cyclic peptides of protein X2 of SARS-CoV Urbani [2]: 0.6
Binding of serum 6 to linear peptides of protein X2 [2]: 0.8
Binding of serum 6 to looped/cyclic peptides of protein X2 of SARS-CoV Urbani [2]: 0.4
Binding of serum 37 to linear peptides of protein X2 [2]: 0.6
Binding of serum 37 to looped/cyclic peptides of protein X2 of SARS-CoV Urbani [2]: 0.6
Binding of serum 62 to linear peptides of protein X2 [2]: 0.6
Binding of serum 62 to looped/cyclic peptides of protein X2 of SARS-CoV Urbani [2]: 0.8
Binding of serum London to linear peptides of protein X2 [2]: 0.5
Binding of serum London to looped/cyclic peptides of protein X2 of SARS-CoV Urbani [2]: 0.3
Binding of serum SARS-green to linear peptides of protein X2 [2]: 0.6
Binding of serum SARS-green to looped/cyclic peptides of protein X2 of SARS-CoV Urbani [2]: 0.5
Binding of serum SARS-yellow to linear peptides of protein X2 [2]: 0.6
Binding of serum SARS-yellow to looped/cyclic peptides of protein X2 of SARS-CoV Urbani [2]: 0.4
Binding of a rabbit serum to linear peptides [3]: 0.8
Binding of a rabbit serum to looped peptides [3]: 1.5

QTLVLKMLHSSSLTS
Binding of Control Serum Blood-Bank to Looped peptides [1]: 0.5
Binding of Control serum Blood-bank to linear peptides [1]: 0.7
Binding of Control serum LUMC to linear peptides [1]: 0.4
Binding of Control serum LUMC to looped peptides [1]: 0.6
Binding of serum 1a to linear peptides of protein X2 [2]: 0.7
Binding of serum 1a to looped/cyclic peptides of protein X2 of SARS-CoV Urbani [2]: 0.6
Binding of serum 1b to linear peptides of protein X2 [2]: 0.5
Binding of serum 1b to looped/cyclic peptides of protein X2 of SARS-CoV Urbani [2]: 0.4
Binding of serum 2 to linear peptides of protein X2 [2]: 0.5
Binding of serum 2 to looped/cyclic peptides of protein X2 of SARS-CoV Urbani [2]: 0.3
Binding of serum 6 to linear peptides of protein X2 [2]: 0.5
Binding of serum 6 to looped/cyclic peptides of protein X2 of SARS-CoV Urbani [2]: 0.5
Binding of serum 37 to linear peptides of protein X2 [2]: 0.5
Binding of serum 37 to looped/cyclic peptides of protein X2 of SARS-CoV Urbani [2]: 0.4
Binding of serum 62 to linear peptides of protein X2 [2]: 0.6
Binding of serum 62 to looped/cyclic peptides of protein X2 of SARS-CoV Urbani [2]: 0.6
Binding of serum London to linear peptides of protein X2 [2]: 0.4
Binding of serum London to looped/cyclic peptides of protein X2 of SARS-CoV Urbani [2]: 0.9
Binding of serum SARS-green to linear peptides of protein X2 [2]: 0.5
Binding of serum SARS-green to looped/cyclic peptides of protein X2 of SARS-CoV Urbani [2]: 0.3
Binding of serum SARS-yellow to linear peptides of protein X2 [2]: 0.7
Binding of serum SARS-yellow to looped/cyclic peptides of protein X2 of SARS-CoV Urbani [2]: 0.4
Binding of a rabbit serum to linear peptides [3]: 0.3
Binding of a rabbit serum to looped peptides [3]: 0.4

QVTIAEILIIIMRTF
Binding of Control Serum Blood-Bank to Looped peptides of the protein X3 of SARS-CoV Urbani [1]: 0.9
Binding of Control serum Blood-bank to linear peptides of the protein X3 of SARS-CoV Urbani [1]: 0.7
Binding of Control serum LUMC to linear peptides of the protein X3 of SARS-CoV Urbani [1]: 0.7
Binding of Control serum LUMC to looped peptides of the protein X3 of SARS-CoV Urbani [1]: 0.7
Binding of serum 1a to linear peptides of protein X3 of SARS-CoV Urbani [2]: 0.7
Binding of serum 1a to looped/cyclic peptides of protein X3 of SARS-CoV Urbani [2]: 0.7
Binding of serum 1b to linear peptides of protein X3 of SARS-CoV Urbani [2]: 0.4
Binding of serum 1b to looped/cyclic peptides of protein X3 of SARS-CoV Urbani [2]: 0.3
Binding of serum 2 to linear peptides of protein X3 of SARS-CoV Urbani [2]: 0.5
Binding of serum 2 to looped/cyclic peptides of protein X3 of SARS-CoV Urbani [2]: 0.5
Binding of serum 6 to linear peptides of protein X3 of SARS-CoV Urbani [2]: 0.5
Binding of serum 6 to looped/cyclic peptides of protein X3 of SARS-CoV Urbani [2]: 0.5
Binding of serum 37 to linear peptides of protein X3 of SARS-CoV Urbani [2]: 0.4
Binding of serum 37 to looped/cyclic peptides of protein X3 of SARS-CoV Urbani [2]: 0.6
Binding of serum 62 to linear peptides of protein X3 of SARS-CoV Urbani [2]: 0.7
Binding of serum 62 to looped/cyclic peptides of protein X3 of SARS-CoV Urbani [2]: 0.4
Binding of serum London to linear peptides of protein X3 of SARS-CoV Urbani [2]: 0.7
Binding of serum London to looped/cyclic peptides of protein X3 of SARS-CoV Urbani [2]: 0.2
Binding of serum SARS-green to linear peptides of protein X3 of SARS-CoV Urbani [2]: 0.4
Binding of serum SARS-green to looped/cyclic peptides of protein X3 of SARS-CoV Urbani [2]: 0.2
Binding of serum SARS-yellow to linear peptides of protein X3 of SARS-CoV Urbani [2]: 0.2
Binding of serum SARS-yellow to looped/cyclic peptides of protein X3 of SARS-CoV Urbani [2]: 0.7
Rabbit serum linear peptides [3]: 0.3
Rabbit serum looped peptides [3]: 0.6
